According to patent US8481711B2, “Neurite outgrowth agent” (Hidenori Kamanishi, priority 2010, dated 2013):

Legend:
Type in all cases: cell-based
Neuro-2a cells = assay: Neurite outgrowth in mouse neuroblastoma Neuro-2a cells (phase-contrast microscopy); settings: 10 μg/mL, 48 hours culture, vs control without compound
Method: Using mouse-derived neuroblastoma cells that are model cells used to examine neurite outgrowth effect, the inductive action of the NAD analogue of the present invention on the outgrowth of neurites was examined. Mouse-derived neuroblastoma cells (Neuro-2a cells) (obtained from the Health Science Research Resources Bank) were adjusted to a concentration of 10^6 cells/mL, and the cells were then cultured at 37° C. in a 10% fetal bovine serum-added Eagle's minimal essential (EME) medium culture solution in the presence of 5% CO2.
The above-described Neuro-2a cells were cultured for 3 hours, and the medium was then exchanged with a fresh one of the same type as described above. Then, 10 μg/mL of the NAD analogue of the present invention was added thereto, and the culture was further continued for 48 hours. Thereafter, the morphological alteration of the cell was observed under a phase-contrast microscope. […] However, when compared with the case of adding the NAD analogue of the present invention to the cells, the length of such a neurite was apparently short. Moreover, the same experiment as described above was carried out using commercially available β-NAD.

[1] = tested on: fetal rat midbrain dopaminergic nerve cells; assay: Neurite outgrowth in fetal rat midbrain dopaminergic nerve cells (anti-tyrosine hydroxylase immunostaining, Neurolucida); settings: for length of neurites elongated from the cell bodies (concentration dependence): 0.01, 0.1, 1.0 and 10 μg/mL, vs control (FIG. 6)
Method: Fetuses were removed from a Sprague-Dawley (SD) rat that was 15 days pregnant, and a ventral portion of midbrain was then cut out under a stereoscopic microscope. The obtained portion was chopped with a surgical knife, and was then treated at 37° C. in a 0.25% trypsin-containing PBS for 20 minutes, so that the cells were dispersed. Thereafter, the resulting cells were treated with PBS that contained 50 μg/mL deoxyribonuclease (DNase I) and 50 μg/mL trypsin inhibitor at 37° C. for 5 minutes, so as to obtain fetal rat midbrain dopaminergic nerve cells. The thus obtained fetal rat midbrain dopaminergic nerve cells were cultured at 37° C. in a 10% bovine serum-added Dulbecco's modified Eagle's medium (DMEM) culture solution in the presence of 5% CO2.
The above-described fetal rat midbrain dopaminergic nerve cells were cultured for 2 days, and the culture solution was then exchanged with a fresh one. The NAD analogue of the present invention was added to the cells in various concentrations of 0 (control), 0.01, 0.1, 1.0 and 10 μg/mL, and the obtained mixture was further cultured for 3 days. On the 5th day of the culture, the dopaminergic nerve cells were stained with an anti-tyrosine hydroxylase antibody (manufactured by Pel-Freez) and a Fluorescein (FITC)-labeled secondary antibody (manufactured by Jackson ImmunoResearch Laboratories, Inc.) according to an immunostaining method. Then, the length and number of neurites elongated from the cell bodies of the stained cells were then measured using Neurolucida (manufactured by Micro Bright Field). […] Moreover, the same experiment as described above was carried out using commercially available β-NAD.
The lengths of neurites elongated from the cells were measured, and a comparison was made on the measurement results. When 10 μg/mL of the NAD analogue of the present invention was added to the cells, the length of the obtained neurite became approximately 150% if the length of a neurite in the control was defined as 100%. […] It is noted that 45 control cells and 38 test cells were subjected to the measurement, and the results were shown as average values.
FIG. 8 is a graph showing a quantitative change in the effect of the NAD analogue of the present invention to allow neurites to elongate from fetal rat brain dopaminergic cells. […] Moreover, the same experiment as described above was carried out using commercially available β-NAD.

NB-1 cells = assay: Neurite outgrowth in human neuroblastoma-derived NB-1 cells (phase-contrast microscopy); settings: 10 μg/mL; for morphological alteration of the cells (neurite outgrowth): NB-1 cells 10^3 cells/mL, observed on the 10th day (FIG. 15)
Method: Using human neuroblastoma cell-derived cells as model cells for neurite outgrowth, the action of the NAD analogue of the present invention to induce the outgrowth of neurites was examined. Human-derived neuroblastoma cells (NB-1 cells) (obtained from the Health Science Research Resources Bank) were adjusted to a concentration of 10^3 cells/mL, and the cells were then cultured at 37° C. in a 10% fetal bovine serum-added Eagle's minimal essential medium (EME) culture solution in the presence of 5% CO2.
The above-described NB-1 cells were cultured for 3 hours, and the medium was then exchanged with a fresh one of the same type as described above. Then, 10 μg/mL of the NAD analogue of the present invention was added thereto, and the culture was further continued. Thereafter, the morphological alteration of the cells was observed under a phase-contrast microscope. During the culture, the culture solution was exchanged with a fresh one every 4 or 5 days. […] However, when compared with the case of adding the NAD analogue of the present invention to the cells, the length of such a neurite was apparently short. Moreover, the same experiment as described above was carried out using commercially available β-NAD.
The number of human neuroblastoma-derived cells (NB-cells), which were to be used as model cells for studying neurite outgrowth effect, was adjusted to 10^6 cells/mL. Thus prepared NB-1 cells were cultured in an Eagle's MEM medium, to which calf serum had been added to a final concentration of 10% and to which 10 μg/mL of the NAD analogue of the present invention had also been added. After 7 days passed, the morphological alteration of the cells was observed under a phase-contrast microscope at a magnification of 200 times.

HL-60 cells [2] = assay: Growth suppression of human myeloid leukemia cells (cell count); settings: tested 0, 2.0, 4.0, 8.0 μg/mL, 5 days, t-test p<0.05 (FIG. 17)
Method: (§1) The number of human myeloid leukemia cells (HL-60 cells) was adjusted to 1.0×10^4 cells/mL. The thus prepared HL-60 cells were cultured in an Eagle's MEM medium, to which calf serum had been added to a final concentration of 10% and to which the NAD analogue of the present invention had also been added in various concentrations of 0, 2.0, 4.0, and 8.0 μg/mL. After 5 days passed, the number of cells was counted.
(§2) Analysis was carried out by a t-test. It was determined that p<0.05 indicated a significant difference.

HL-60 cells [3] = assay: Apoptosis induction in human myeloid leukemia cells (nuclear staining, DNA electrophoresis)
Method: The number of human myeloid leukemia cells (HL-60 cells) was adjusted to 1.0×10^4 cells/mL. The thus prepared HL-60 cells were cultured in an RPMI medium, to which calf serum had been added to a final concentration of 10% and to which the NAD analogue of the present invention had also been added in a concentration of 10 μg/mL or 20 μg/mL. Four days later, the cells were subjected to nuclear staining, and they were then observed under a fluorescence microscope. Furthermore, DNA was extracted from the cells according to an ordinary method and was then electrophoresed.

UF-1 cells = assay: Growth suppression of retinoic acid-resistant leukemia cells (cell count); settings: tested 0, 2.0, 4.0, 8.0 μg/mL, 28 days, t-test p<0.05 (FIG. 19)
Method: as §1, with “retinoic acid-resistant” for “human myeloid”, “(UF-1” for “(HL-60”, “UF-1” for “HL-60”, “RPMI” for “Eagle's MEM”, “28” for “5”
Analysis was carried out by a t-test. It was determined that p<0.05 indicated a significant difference. […] A differentiation induction therapy using retinoic acid has conventionally been carried out for the treatment of myeloid leukemia cells. It has been known that the leukemia cells eventually become resistant to retinoic acid, and thus the effect of retinoic acid becomes deactivated. However, from the results of the test using the NAD analogue of the present invention, it was confirmed that the NAD analogue of the present invention has an action to suppress the growth of even leukemia cells, which have acquired resistance to retinoic acid. In general, cells are not cultured for such a long period of time. The above-mentioned results were epoch-making in the sense that they were found after the culture for 28 days.

HT1080 cells = assay: Growth suppression of human fibrosarcoma cells (cell count); settings: tested 0, 2.0, 4.0, 8.0 μg/mL, 7 days, t-test p<0.05 (FIG. 20)
Method: as §1, with “fibrosarcoma” for “myeloid leukemia”, “(HT1080” for “(HL-60”, “Thus” for “The thus”, “HT1080” for “HL-60”, “7” for “5”
as §2

HT29 cells = assay: Growth suppression of human colon-adenocarcinoma cells (cell count); settings: tested 0, 2.0, 4.0, 8.0 μg/mL, 7 days, t-test p<0.05 (FIG. 21)
Method: as §1, with “colon-adenocarcinoma” for “myeloid leukemia”, “(HT29” for “(HL-60”, “Thus” for “The thus”, “HT29” for “HL-60”, “7” for “5”
as §2

Molecule | morphological alteration of the cell (neurite outgrowth) (Neuro-2a cells) | length of the neurite (control defined as 100%) ([1]; 10 μg/mL, average of 38 test cells vs 45 control cells (FIG. 7)) | length of neurites elongated from the cell bodies (concentration dependence) ([1]; 3 days) | concentration whose addition allows neurites to elongate ([1]; fetal rat brain dopaminergic cells (FIG. 8)) | formation of varicosities on the projection ([1]; fetal rat midbrain nerve cells, 0 to 10 μg/mL, 3 days) | morphological alteration of the cells (neurite outgrowth) (NB-1 cells) | morphological alteration of the cells (neurite-like structures) (NB-1 cells; NB-1 cells 10^6 cells/mL, after 7 days (FIG. 16)) | concentration at which growth of the HL-60 cells was obviously suppressed (HL-60 cells [2]) | shape of the nucleus (nuclear staining, fluorescence microscope) (HL-60 cells [3]; HL-60 cells cultured for 4 days with compound (FIG. 18B)) | DNA fragmentation (electrophoresis of extracted DNA) (HL-60 cells [3]; HL-60 cells, 10 μg/mL or 20 μg/mL, 4 days (FIG. 18C lanes 3 and 4)) | concentration at which growth of the UF-1 cells was significantly suppressed (UF-1 cells) | concentration at which growth of the cells was significantly suppressed (HT1080 cells) | concentration at which growth of the cells was significantly suppressed (HT29 cells) | outgrowth of neurites (same experiment as FIG. 8) ([1]; fetal rat brain dopaminergic cells)
3-(aminocarbonyl)-1-[5-O-[[1-(6-amino-9H-purin-9-yl)-1-deoxy-β-D-ribofuranose-5-O-yl]phosphonyloxy(oxylato)phosphinyl]-β-L-ribofuranosyl]pyridinium [NAD analogue of the present invention] | neurites (nerve axon-like projections) appeared from Neuro-2a cells and that these neurites elongated from the cells | approximately 150% | the higher the concentration of the NAD analogue of the present invention in the fetal rat midbrain nerve cells, the longer a neurite | 0.1 µg/mL | forms a large number of knobby, what is called “varicosities” on the projection | neurites (nerve axon-like projections) appeared from NB-1 cells and that these neurites elongated from the cells | neurite-like structures elongated more significantly | ≥ 2.0 µg/mL | the breakage of the nucleus in the HL-60 cell was clearly observed | fragmentation of the DNA due to apoptosis was observed in the form of a “ladder.” | ≥ 8.0 µg/mL | ≥ 4.0 µg/mL | ≥ 2 µg/mL | 
NC(=O)c1ccc[n+]([C@@H]2O[C@H](COP(=O)([O-])OP(=O)(O)OC[C@H]3O[C@@H](n4cnc5c(N)ncnc54)[C@H](O)[C@@H]3O)[C@@H](O)[C@H]2O)c1 [β-NAD, reference compound] | no change in neurites was found |  | the outgrowth of neurites was not observed |  |  | no change in neurites was found |  |  |  |  |  |  |  | the outgrowth of neurites was not observed
